Here are results for one compound from patent publication US20260166182A1, “CYANINE-BASED FLUOROPHORES” (The General Hospital Corporation, priority 2022, published 2026).

In data set [1] the test system is orthotopic lung cancer (LLC cell). Description: Orthotopic lung tumor targeting. The data set is classed as in vivo, mouse. Particulars: 50 nmol, 48 h prior to imaging. The source says: General NIR-II fluorescence imaging: A 640×512-pixel InGaAs camera (Ninox640, Raptor Photonics) and macro zoom lens (0-10×; Navitar Zoom 7000 with SWIR coating) along with 900, 1070, 1100, and 1200 nm long-pass (LP) filters from either Thorlab or Edmund optics were used to collect the NIR-II signal. InGaAs camera played a role as an open-air imaging system along with the support of the FLARE system. An 808 nm fiber-coupled diode laser ([…] at the sample) was used as an excitation source. Data acquisition was done using in-house developed software. The mice fur on the region of interest was shaved prior to imaging using a clipper and removed completely using a depilatory cream. 100 μL of SH1 in 5 w/v % BSA saline ([…]) was injected through the tail vein. Mice were imaged with intact skin using InGaAs camera. At least 3 mice were analyzed for each sample. […]
Statistical analysis: The fluorescence and background intensities of a region of interest over each tissue were quantified using customized imaging software and ImageJ v1.48 (National Institutes of Health, Bethesda, MD). The signal-to-background ratio (SBR) was calculated as SBR=fluorescence/background, where background was the fluorescence intensity of muscle. […] The differences among groups were determined using one-way ANOVA analysis to assess the statistical differences among more than two groups. […]

A short description of data set [2]: In vivo biodistribution and pharmacokinetics in CD-1 mice. Set-up: species or system mouse. The text has this:
In vivo biodistribution and pharmacokinetics of SH dyes: Animals were housed in an AAALAC-certified facility and were studied under the supervision of MGH IACUC in accordance with the approved institutional protocol. Six-week-old CD-1 mice (male; 25-30 g) were purchased from Charles River Laboratories (Wilmington, MA). Mice were maintained under anesthesia with isoflurane and oxygen during the preparation prior to injection. The end of the tail was cut for blood collection. Before injection, blood was sampled in capillary tubes (Fisher Scientific, Pittsburgh, PA) as a reference. […] Mice were imaged using the in-house built NIR-II imaging system. After 24 h post-injection, mice were sacrificed to image organs. At least 3 mice were analyzed for each sample. Results were presented as an exponential decay curve using Prism software version 9.0.2 (GraphPad, San Diego, CA).

In data set [3] the test system is LLC tumor. Kind of data set: Tumor histopathology with NIR fluorescence microscopy of resected LLC tumors. It counts as in vivo, mouse. To be noted: histological NIR images. How it is done: Tumor histopathology evaluation: […] After rinsing with PBS, the fixed sections were counterstained with nuclear fast red, dehydrated by ethanol, transferred into xylene, and finally mounted according to the standard protocol. To determine the tissue distribution of the NIR fluorophore, the dissected tissues were embedded in Tissue-Tek optimum cutting temperature compound (Sakura Finetek, Torrance, CA) without a pre-fixation step. The tissue block was frozen at −80° C. Frozen sections were cut at a thickness of 10 or 50 μm by a cryostat (Leica, Germany). Then, the tissue sections were stained with hematoxylin and eosin (H&E). The BioTek Cytation 5 (Winooski, VT) was used for pathological fluorescence imaging and observation.

Data set [4] can be described thus: Optical study in EtOH, DMSO, HEPES and PBS. The data set is classed as physicochemical. The protocol:
Optical Study, Photostability, Physicochemical Properties, and DFT Calculation: 1 mM stock solution in DMSO of the synthesized fluorophores was prepared before starting any spectral measurement. Optical properties for the synthesized fluorophores were measured in four different solvents (EtOH, DMSO, HEPES, and PBS). Absorbance spectra were measured in a Varian Cary 50 absorbance spectrophotometer (190-1100 nm). Fluorescence emission and photostability were measured and emission spectra were recorded on a Shimadzu RF-5301PC spectrofluorometer. Physicochemical properties (Log D, molecular mass, TPSA, H bond D/A, polarizability, molecular volume, and rotatable bonds) were predicted by ChemAxon (JChem plugin). Theoretical calculations of frontier molecular orbitals (FMOs) for the optimized structures of selected fluorophores were calculated based on DFT calculations at the B3LYP/6-311G(d,p) level.
In vivo success of a contrast agent can depend on the absorption and emission profiles, molar extinction coefficient, quantum yield, molecular brightness, physicochemical properties, and photochemical stability. Different types of polymethine bridges can have an impact on the structural geometry of the fluorophores and the absorption and emission profiles. Optical properties were measured in polar protic EtOH, polar aprotic DMSO, and two buffer solutions, phosphate-buffered saline (PBS, PH ˜7.4) and 4-(2-hydroxyethyl)-1-piperazine-ethanesulfonic acid (HEPES, PH ˜7.4). Organic solvents such as ethanol (EtOH) and dimethyl sulfoxide (DMSO) are often used in spectroscopic experiments to observe the absorption and emission maximum, whereas buffer solvents PBS and HEPES were used to mimic the biological environment, as these synthesized fluorophores are intended to be used in bioimaging. The absorbance profiles of these fluorophores were recorded at various concentrations (0.8, 1.6, 2.4, 3.2, 4.0 μM) and the absorbance values obtained were plotted against each of the concentrations. […] Fluorophores 18-21 refer to the labels in Example 4 and FIG. 7D.
The molar extinction coefficient is an intrinsic property of any fluorophore and can be important for high image resolution. […] These properties vary with the structure change and are difficult to predict beforehand. The optical properties of the synthesized fluorophores were measured in various media. All measurements were performed in 2 different organic solvents (EtOH and DMSO) and 2 different buffer (HEPES and PBS), and ICG was used as a reference (ΦICG=0.043).

`CCCCN1/C(=C/C=C2\CCCC(/C=C/C3=[N+](CCCC)c4ccc(Cl)cc4C3(C)C)=C2Cl)C(C)(C)c2cc(Cl)ccc21` [SH1, 1-butyl-2-((E)-2-((E)-3-(2-((E)-1-butyl-5-chloro-3,3-dimethylindolin-2-ylidene)ethylidene)-2-chlorocyclohex-1-en-1-yl)vinyl)-5-chloro-3,3-dimethyl-3H-indol-1-ium]: in data set [1], the “TBR against normal tissue” value is recorded as 47.3 and the “TBR against the lung” value is reported as 3.12. Besides, in data set [2] (1 μmol/kg intravenous), the pharmacokinetic model entry is recorded as “one-compartment model” and the “time to complete distribution” value was at most 24 h. Further, the organ distribution entry in data set [2] (24 h post-injection) is “major distribution in the liver and spleen”. The half-life (usually the time in which the quantity being followed falls by half) in data set [2] (male, CD-1, mouse, whole blood, 1 umol/kg, 1 μmol/kg intravenous, read-out: elimination blood half-life t½ (converted)) was 323 ± 91.8 min. Moreover, in data set [3], the “fluorescence signal location in resected tumor” value is given as “strong fluorescence signals in the targeted tumor”. Also, the molar extinction coefficient in data set [4] (DMSO) is recorded as 203,000 cm^−1 M^−1. The molar extinction coefficient in data set [4] (EtOH) is reported as 270,000 cm^−1 M^−1. Further, in data set [4] (HEPES), the Stokes shift is on record as 140 nm, the absorbance maximum is recorded as 661 nm, the emission wavelength came out at 802 nm and the molar extinction coefficient is listed as 44,000 cm^−1 M^−1. For the same compound, in data set [4] (PBS), the molar extinction coefficient is 41,000 cm^−1 M^−1.
